# Measurements taken from US20230041138A1, “TREATMENT OF HIS HYPORESPONDERS” (NewAmsterdam Pharma B.V. (Dutch Registration No. 55971946), priority 2021, published 2023).
# Several values for one entry are separate records, joined by “and”; a condition that tells them apart may be missing. Identical values can stand only once. Like-named read-outs stand apart in the source and are kept apart here.
# How the values were obtained:
# [1] = tested on: LDL-C; details: cited from earlier work
# [2] = tested on: Lipoprotein, lipid and apolipoprotein concentrations; experiment: Phase 2 placebo-controlled study of obicetrapib as adjunct to high-intensity statin therapy: lipid efficacy; format: in vivo, human; details: for Apo A1, week 8 change, LS Mean ± SE / Apo B, week 8 change, LS Mean ± SE / HDL-C, week 8 change, LS Mean ± SE / LDL-C (Martin-Hopkins), week 8 change, LS Mean ± SE / Lp(a), week 8 change, LS Mean ± SE / Non-HDL-C, week 8 change, LS Mean ± SE / TG, week 8 change, LS Mean ± SE / VLDL-C, week 8 change, LS Mean ± SE / LDL-C by Friedewald, % change from baseline, LS mean: MMRM; for LDL-C (PUC), week 8 change, LS Mean ± SE (Table 9): analysis of covariance model; for LDL-C (Friedewald formula) reduced from baseline by: primary analysis; for LDL-C (Friedewald formula) reduced from baseline by / Apo B reduced by / Lp(a) reduced by / non-HDL-C reduced by: stated as reduction; for ApoB, % change from baseline, median / HDL-C, % change from baseline, median / LDL-C by Friedewald, % change from baseline (median) / LDL-C by PUC, % change from baseline (median) / Non-HDL-C, % change (median) from baseline / LDL-C by Friedewald, % change from baseline, LS mean: week 8, on top of high-intensity statin
# Procedure: The study consisted of three arms: 1) 5 mg obicetrapib as adjunctive therapy; 2) 10 mg obicetrapib as adjunctive therapy and 3) a placebo arm. The second objective was to evaluate other lipoprotein lipid and apolipoprotein responses, safety and tolerability profiles, and plasma concentrations of obicetrapib during treatment and for several weeks of follow-up. Lastly, this study aimed to determine if different quantitative measures of LDL-C levels produced differences in the treatment effects of CETP inhibition.
# This randomised, double-blind, placebo-controlled, parallel-group phase 2 trial was conducted in male and female patients (18-75 years), treated with high-intensity statin therapy, with LDL-C levels >70 mg/DL and TG levels <400 mg/dL. Key exclusion criteria were patients with BMI >40 kg/m; Significant cardiovascular disease; HbAc >10%; Uncontrolled hypertension; Active muscle disease; GFR <60 ml/min; Hepatic dysfunction; Anemia; History of malignancy; Alcohol abuse; Treatment with investigational product; Treatment with PCSK9 inhibitor; Clinically significant condition; and/or prior exposure to a CETP inhibitor. Patients were recruited at 19 sites in the United States. The trial was approved by Independent Ethics Committees, and each patient provided written informed consent. The trial was conducted in accordance with the principles of the Declaration of Helsinki and Good Clinical Practice Guidelines and the protocol was registered on ClinicalTrials.gov (NCT04753606).
# The screening period for this study took up to 2-weeks. Afterwards patients were randomized to placebo, 5 mg obicetrapib or 10 mg obicetrapib for an 8-week treatment period. After the treatment period, patients continued for a 4-week safety follow-up and a 15-week PK follow-up.
# Patients were randomly assigned to receive one of the three treatments investigative treatments. All treatments were to be taken once daily with food for 8 weeks. Safety was assessed throughout the trial by monitoring adverse events and concomitant medication use, 12-lead electrocardiograms (ECGs), vital signs, laboratory safety assessments and physical examinations. Additional assessments included salivary cortisol, plasma aldosterone, high-sensitivity C-reactive protein (hsCRP) and endothelin 1.
# Efficacy assessments included fasted lipid profiles including total cholesterol (TC), HDL-C, LDL-C, triglycerides, apolipoprotein B (ApoB), and derived parameters.
# Total cholesterol and triglycerides were measured by homogenous enzymatic assay using a Modular analyser (cholesterol oxidase peroxidase-peroxidase aminophenazone phenol [CHOP-PAP]) method and a glycerol phosphate oxidase [GPO-PAP] method, respectively. Apolipoprotein B was measured by immunoturbidimetry using reagents from Rolf Greiner Biochemica (Germany) and N apoprotein standard serum from Siemens (Germany). LDL particle size was determined by gradient gel electrophoresis. HDL fraction was separated by a combined ultracentrifugation-precipitation method (β-quantification). HDL-2 and HDL-3 fractions were then separated by further ultracentrifugation. Total-cholesterol in HDL, HDL 2 and HLD-3 fractions, free cholesterol in HDL fraction, triglycerides in HDL fraction and phospholipids in plasma and HDL-fraction were measured using enzymatic methods and reagents from Diasys Diagnostics (Germany). The measurements were performed on an Olympus AU600 automatic analyzer and were calibrated using secondary standards from Roche Diagnostics (total-cholesterol, triglycerides) and Diasys Diagnostics (free cholesterol, phospholipids), respectively. Esterified cholesterol was calculated as the difference between total-cholesterol and free cholesterol.
# The primary outcome measure was LDL-C (percent change). Secondary outcome measures included ApoB, Non-HDL-C and HDL-C (percent change). The Intent-to-Treat (ITT) Population included all participants randomized into the study. […]
# [3] = 5 mg once daily for 8 weeks on top of high-intensity statin
# [4] = 5 mg once daily on top of high-intensity statin
# [5] = 5 mg once daily on top of high-intensity statin, listed as obicetrapib
# [6] = 5 mg once daily, 8 weeks, on top of high-intensity statin
# [7] = 10 mg once daily for 8 weeks on top of high-intensity statin
# [8] = 10 mg once daily on top of high-intensity statin
# [9] = 10 mg once daily, 8 weeks, on top of high-intensity statin
smiles,measurement,setting,value
"CCOC(=O)N1c2ccc(C(F)(F)F)cc2[C@@H](N(Cc2cc(C(F)(F)F)cc(C(F)(F)F)c2)c2ncc(OCCCC(=O)O)cn2)C[C@H]1CC [Obicetrapib, (2R,4S)-4-{[3,5-bis(trifluoromethyl)benzyl]-[5-(3-carboxypropoxy)pyrimidin-2-yl]amino}-2-ethyl-6-trifluoromethyl-3,4-dihydro-2H-quinoline-1-carboxylic acid ethyl ester]",LDL-C reduction,"[1]; 1 mg for 12 weeks, mild dyslipidemia",27%
same,LDL-C reduction,"[1]; 2.5 mg for 12 weeks, mild dyslipidemia",33%
same,LDL-C reduction,"[1]; 5 mg for 12 weeks, mild dyslipidemia",45%
same,LDL-C reduction,"[1]; 10 mg for 12 weeks, mild dyslipidemia",45%
same,LDL-C reduction,[1]; 10 mg obicetrapib plus 10 mg rosuvastatin,63%
same,LDL-C reduction,[1]; 10 mg obicetrapib plus 20 mg atorvastatin,68%
same,incremental LDL-C reduction compared with statin monotherapy,"[1]; daily 10 mg with moderate-intensity statins (20 mg atorvastatin or 10 mg rosuvastatin), 12 weeks",up to 50%
same,Time of treatment at which maximum LDL-C reductions were already present,[2]; 5 mg and 10 mg add-on to high-intensity statin,≤ 4 weeks
same,"ApoB, EoT median",[2]; [3],65.0 mg/dL
same,"ApoB, change from baseline, median",[2]; [3],-22.0 mg/dL
same,"HDL-C, EoT median",[2]; [3],107.0 mg/dL
same,"HDL-C, change from baseline, median",[2]; [3],60.0 mg/dL
same,"LDL-C by Friedewald, EoT median",[2]; [3],51.0 mg/dL
same,"LDL-C by PUC, EoT median",[2]; [3],53.0 mg/dL
same,"Non-HDL-C, EoT median",[2]; [3],71 mg/dL
same,"Apo A1, week 8 change, median (min, max)",[2]; [4],"44.6% and 44.6 (−10.0, 87.1) %"
same,"LDL-C (Martin-Hopkins), week 8 change, median (min, max)",[2]; [4],"−42.5 (−80.8, 74.4) %"
same,"Lp(a), week 8 change, median (min, max)",[2]; [4],"−33.8 (−84.6, 93.8) %"
same,"TG, week 8 change, median (min, max)",[2]; [4],"−11.0 (−53.3, 86.7) %"
same,"VLDL-C, week 8 change, median (min, max)",[2]; [4],"−11.5 (−53.5, 83.3) %"
same,"Apo A1, week 8 change, LS Mean ± SE",[2]; [4],41.1 ± 3.04%
same,"Apo B, week 8 change, LS Mean ± SE",[2]; [4],−22.4 ± 2.58%
same,"HDL-C, week 8 change, LS Mean ± SE",[2]; [4],122 ± 6.59%
same,"LDL-C (Martin-Hopkins), week 8 change, LS Mean ± SE",[2]; [4],−39.6 ± 3.68%
same,"Lp(a), week 8 change, LS Mean ± SE",[2]; [4],−30.9 ± 4.43%
same,"Non-HDL-C, week 8 change, LS Mean ± SE",[2]; [4],−34.4 ± 3.18%
same,"TG, week 8 change, LS Mean ± SE",[2]; [4],−6.63 ± 5.32%
same,"VLDL-C, week 8 change, LS Mean ± SE",[2]; [4],−6.02 ± 5.24%
same,"LDL-C (PUC), week 8 change, LS Mean ± SE (Table 9)",[2]; [4],−35.7 ± 3.31%
same,"LDL-C (Martin-Hopkins), week 8 change, median (min, max)",[2]; [5],42.5%
same,"TG, week 8 change, median (min, max)",[2]; [5],−11.0%
same,"VLDL-C, week 8 change, median (min, max)",[2]; [5],−11.5%
same,"LDL-C by PUC, % change from baseline, LS mean (Table 3)",[2]; [6],−37.98%
same,LDL-C (Friedewald formula) reduced from baseline by,[2]; [6],42.9%
same,Apo B reduced by,[2]; [6],24.4%
same,Lp(a) reduced by,[2]; [6],33.8%
same,non-HDL-C reduced by,[2]; [6],38.9%
same,"ApoB, % change from baseline, median",[2]; 5 mg once daily,"−24.40% and −24.4 (−58.5, 47.4) %"
same,"HDL-C, % change from baseline, median",[2]; 5 mg once daily,"135% and 135.4% and 135 (−26.4, 213) %"
same,"LDL-C by Friedewald, % change from baseline (median)",[2]; 5 mg once daily,"−42.90% and −42.9 (−81.9, 72.4) %"
same,"LDL-C by PUC, % change from baseline (median)",[2]; 5 mg once daily,"−41.5% and −41.45% and −41.5 (−71.2, 62.3) %"
same,"Non-HDL-C, % change (median) from baseline",[2]; 5 mg once daily,"−38.9% and −38.9 (−65.6, 66.3) %"
same,"LDL-C by Friedewald, % change from baseline, LS mean",[2]; 5 mg once daily,−37.94% and −38.0 ± 3.49%
same,"LDL-C by PUC, % change from baseline (median)","[2]; 5 mg once daily, listed as obicetrapib",−41.5%
same,"ApoB, EoT median",[2]; [7],58.5 mg/dL
same,"ApoB, change from baseline, median",[2]; [7],-24.5 mg/dL
same,"HDL-C, EoT median",[2]; [7],117.5 mg/dL
same,"HDL-C, change from baseline, median",[2]; [7],72.0 mg/dL
same,"LDL-C by Friedewald, EoT median",[2]; [7],52.0 mg/dL
same,"LDL-C by PUC, EoT median",[2]; [7],49.5 mg/dL
same,"Non-HDL-C, EoT median",[2]; [7],69 mg/dL
same,"Apo A1, week 8 change, median (min, max)",[2]; [8],"47.8% and 47.8 (13.5, 106) %"
same,"LDL-C (Martin-Hopkins), week 8 change, median (min, max)",[2]; [8],"−49.2 (−77.0, 28.1) %"
same,"Lp(a), week 8 change, median (min, max)",[2]; [8],"−56.5 (−85.7, 18.3) %"
same,"TG, week 8 change, median (min, max)",[2]; [8],"−7.85 (−63.7, 129) %"
same,"VLDL-C, week 8 change, median (min, max)",[2]; [8],"−7.90 (−44.4, 125) %"
same,"Apo A1, week 8 change, LS Mean ± SE",[2]; [8],52.3 ± 3.04%
same,"Apo B, week 8 change, LS Mean ± SE",[2]; [8],−28.1 ± 2.56%
same,"HDL-C, week 8 change, LS Mean ± SE",[2]; [8],157 ± 6.54%
same,"LDL-C (Martin-Hopkins), week 8 change, LS Mean ± SE",[2]; [8],−46.9 ± 3.65%
same,"Lp(a), week 8 change, LS Mean ± SE",[2]; [8],−42.0 ± 4.33%
same,"Non-HDL-C, week 8 change, LS Mean ± SE",[2]; [8],−39.9 ± 3.15%
same,"TG, week 8 change, LS Mean ± SE",[2]; [8],2.45 ± 5.27%
same,"VLDL-C, week 8 change, LS Mean ± SE",[2]; [8],3.08 ± 5.19%
same,"LDL-C (PUC), week 8 change, LS Mean ± SE (Table 9)",[2]; [8],−46.8 ± 3.23%
same,"LDL-C (Martin-Hopkins), week 8 change, median (min, max)","[2]; 10 mg once daily on top of high-intensity statin, listed as obicetrapib",−49.2%
same,"LDL-C by PUC, % change from baseline, LS mean (Table 3)",[2]; [9],−44.15%
same,"TG and VLDL-C, comparison with placebo",[2]; [9],not significantly different
same,LDL-C (Friedewald formula) reduced from baseline by,[2]; [9],45.7%
same,Apo B reduced by,[2]; [9],29.8%
same,Lp(a) reduced by,[2]; [9],56.5%
same,non-HDL-C reduced by,[2]; [9],44.4%
same,"ApoB, % change from baseline, median",[2]; 10 mg once daily,"−29.75% and −29.8 (−58.4, 13.0) %"
same,"HDL-C, % change from baseline, median",[2]; 10 mg once daily,"165% and 165 (55.1,286) %"
same,"LDL-C by Friedewald, % change from baseline (median)",[2]; 10 mg once daily,"−45.65% and −45.7 (−78.0, 26.2) %"
same,"LDL-C by PUC, % change from baseline (median)",[2]; 10 mg once daily,"−50.8% and −50.75% and −50.8 (−76.9, 15.6) %"
same,"Non-HDL-C, % change (median) from baseline",[2]; 10 mg once daily,"−44.4% and −44.4 (.70.2, 22.5) %"
same,"LDL-C by Friedewald, % change from baseline, LS mean",[2]; 10 mg once daily,−44.15% and −44.2 ± 3.46%
same,"LDL-C by PUC, % change from baseline (median)","[2]; 10 mg once daily, listed as obicetrapib",−50.8%
same,"median Apo B reduction from baseline, post-hoc analysis","[2]; 10 mg, individuals with baseline Apo B >100 mg/dL",39%
